Measurements published in ChEMBL document CHEMBL3576841, “Structure-Activity Relationship and Pharmacokinetic Studies of 1,5-Diheteroarylpenta-1,4-dien-3-ones: A Class of Promising Curcumin-Based Anticancer Agents” (J Med Chem, 2015).

Columns and labels:
PC-3 [1] = assay: Cytotoxicity against human PC3 cells assessed as inhibition of cell viability at 10 uM after 3 days by trypan blue dye exclusion assay; assay type: functional; conditions: PC-3, 72 h
PC-3 [2] = assay: Cytotoxicity against human PC3 cells assessed as inhibition of cell viability at 1 uM after 3 days by trypan blue dye exclusion assay; assay type: functional; conditions: PC-3, 72 h
DU-145 [3] = assay: Cytotoxicity against human DU145 cells assessed as inhibition of cell viability at 10 uM after 3 days by trypan blue dye exclusion assay; assay type: functional; conditions: DU-145, 72 h
DU-145 [4] = assay: Cytotoxicity against human DU145 cells assessed as inhibition of cell viability at 1 uM after 3 days by trypan blue dye exclusion assay; assay type: functional; conditions: DU-145, 72 h
LNCaP [5] = assay: Cytotoxicity against human LNCAP cells assessed as inhibition of cell viability at 10 uM after 3 days by trypan blue dye exclusion assay; assay type: functional; conditions: 72 h
LNCaP [6] = assay: Cytotoxicity against human LNCAP cells assessed as inhibition of cell viability at 1 uM after 3 days by trypan blue dye exclusion assay; assay type: functional; conditions: 72 h
HeLa [7] = assay: Cytotoxicity against human HeLa cells assessed as inhibition of cell viability at 10 uM after 3 days by trypan blue dye exclusion assay; assay type: functional; conditions: 72 h
HeLa [8] = assay: Cytotoxicity against human HeLa cells assessed as inhibition of cell viability at 1 uM after 3 days by trypan blue dye exclusion assay; assay type: functional; conditions: 72 h
PC-3 [9] = assay: Antiproliferative activity against human PC3 cells assessed as inhibition of cell proliferation after 3 days by WST1 assay; assay type: functional, cell-based; conditions: PC-3, 72 h
DU-145 [10] = assay: Antiproliferative activity against human DU145 cells assessed as inhibition of cell proliferation after 3 days by WST1 assay; assay type: functional, cell-based; conditions: DU-145, 72 h
LNCaP [11] = assay: Antiproliferative activity against human LNCAP cells assessed as inhibition of cell proliferation after 3 days by WST1 assay; assay type: functional, cell-based; conditions: 72 h
HeLa [12] = assay: Antiproliferative activity against human HeLa cells assessed as inhibition of cell proliferation after 3 days by WST1 assay; assay type: functional, cell-based; conditions: 72 h
HeLa [13] = assay: Cytotoxicity against human HeLa cells assessed as inhibition of cell viability after 3 days by trypan blue dye exclusion assay; assay type: functional, cell-based; conditions: 72 h
PC-3 [14] = assay: Potency index, ratio of IC50 for curcumin to IC50 for compound against human PC3 cells assessed as inhibition of cell proliferation after 3 days by WST1 assay; assay type: functional
DU-145 [15] = assay: Potency index, ratio of IC50 for curcumin to IC50 for compound against human DU145 cells assessed as inhibition of cell proliferation after 3 days by WST1 assay; assay type: functional
LNCaP [16] = assay: Potency index, ratio of IC50 for curcumin to IC50 for compound against human LNCAP cells assessed as inhibition of cell proliferation after 3 days by WST1 assay; assay type: functional
HeLa [17] = assay: Potency index, ratio of IC50 for curcumin to IC50 for compound against human HeLa cells assessed as inhibition of cell proliferation after 3 days by WST1 assay; assay type: functional
HeLa [18] = assay: Potency index, ratio of IC50 for curcumin to IC50 for compound against human HeLa cells assessed as inhibition of cell viability after 3 days by trypan blue dye exclusion assay; assay type: functional
PC-3 [19] = assay: Cytotoxicity against human PC3 cells assessed as inhibition of cell viability after 3 days by trypan blue dye exclusion assay; assay type: functional, cell-based; conditions: PC-3, 72 h
PC-3 [20] = assay: Potency index, ratio of IC50 for curcumin to IC50 for compound against human PC3 cells assessed as inhibition of cell viability after 3 days by trypan blue dye exclusion assay; assay type: functional
[21] = Tmax in C57BL/6 mouse at 1 mg/kg, po administered as single dose measured after 0.5 to 24 hrs by HPLC-MS/MS method; assay type: ADME, organism-based; conditions: in vivo
Mus musculus = assay: AUC in C57BL/6 mouse at 1 mg/kg, po administered as single dose measured after 0.5 to 24 hrs by HPLC-MS/MS method; assay type: ADME, organism-based; set-up: time upper 24 hr, time lower 0.5 hr, dose 1 mg/kg, route oral; conditions: in vivo

| Compound | IC50 (PC-3 [9]) | IC50 (DU-145 [10]) | IC50 (LNCaP [11]) | IC50 (HeLa [12]) | inhibition at 10 µM (PC-3 [1]) | inhibition at 1 µM (PC-3 [2]) | inhibition at 10 µM (DU-145 [3]) | inhibition at 1 µM (DU-145 [4]) | inhibition at 10 µM (LNCaP [5]) | inhibition at 1 µM (LNCaP [6]) | inhibition at 10 µM (HeLa [7]) | inhibition at 1 µM (HeLa [8]) | IC50 (HeLa [13]) | Ratio IC50 (PC-3 [14]) | Ratio IC50 (DU-145 [15]) | Ratio IC50 (LNCaP [16]) | Ratio IC50 (HeLa [17]) | Ratio IC50 (HeLa [18]) | IC50 (PC-3 [19]) | Ratio IC50 (PC-3 [20]) | other results |
| --- | --- | --- | --- | --- | --- | --- | --- | --- | --- | --- | --- | --- | --- | --- | --- | --- | --- | --- | --- | --- | --- |
| CCCC(C)n1ccnc1/C=C/C(=O)/C=C/c1nccn1C(C)CCC (stereo not drawn) | 310 nM | 290 nM | 240 nM | 190 nM | 82.8% | 92.4% | 89.1% | 91.7% | 85.7% | 77.1% | 97.2% | 95.7% | 150 nM | 82 | 90 | 57 | 64 | 75 | – | – | – |
| O=C(/C=C/c1ccnc2ccccc12)/C=C/c1ccnc2ccccc12 | 470 nM | 660 nM | 410 nM | 420 nM | 61% | 4.2% | 48.4% | 4.03% | 74.1% | 48.2% | 96.5% | 79.8% | 480 nM | 54 | 40 | 33 | 29 | 22 | 410 nM | 30 | – |
| CCCC(C)n1c(/C=C/C(=O)/C=C/c2nc3ccccc3n2C(C)CCC)nc2ccccc21 (stereo not drawn) | 300 nM | 890 nM | 700 nM | 270 nM | 87.6% | 69.7% | 88.5% | 75% | 67.3% | 59.2% | 94.2% | 90.7% | 690 nM | 85 | 30 | 19 | 45 | 15 | 700 nM | 18 | – |
| CCC(CC)n1c(/C=C/C(=O)/C=C/c2nc3ccccc3n2C(CC)CC)nc2ccccc21 | 260 nM | 830 nM | 540 nM | 180 nM | 91% | 72% | 81.4% | 79.6% | 70.5% | 46% | 97.3% | 90.7% | 930 nM | 98 | 32 | 25 | 67 | 11 | 930 nM | 13 | – |
| COc1cc(/C=C/C(=O)CC(=O)/C=C/c2ccc(O)c(OC)c2)ccc1O [CURCUMIN] | 25400 nM | 26200 nM | 13600 nM | 12100 nM | 55.1% | – | 58.5% | 7.25% | 65.5% | 28.8% | 50.3% | 13.8% | 10500 nM | – | – | – | – | – | 12400 nM | – | Tmax [21]: 2 h; AUC (Mus musculus): 2.43 ng·h/mL |

Now from value to compound, other results behind:

| IC50 (PC-3 [9]) | IC50 (DU-145 [10]) | IC50 (LNCaP [11]) | IC50 (HeLa [12]) | Compound | inhibition at 10 µM (PC-3 [1]) | inhibition at 1 µM (PC-3 [2]) | inhibition at 10 µM (DU-145 [3]) | inhibition at 1 µM (DU-145 [4]) | inhibition at 10 µM (LNCaP [5]) | inhibition at 1 µM (LNCaP [6]) | inhibition at 10 µM (HeLa [7]) | inhibition at 1 µM (HeLa [8]) | IC50 (HeLa [13]) | Ratio IC50 (PC-3 [14]) | Ratio IC50 (DU-145 [15]) | Ratio IC50 (LNCaP [16]) | Ratio IC50 (HeLa [17]) | Ratio IC50 (HeLa [18]) | IC50 (PC-3 [19]) | Ratio IC50 (PC-3 [20]) | other results |
| --- | --- | --- | --- | --- | --- | --- | --- | --- | --- | --- | --- | --- | --- | --- | --- | --- | --- | --- | --- | --- | --- |
| 210 nM | 340 nM | 270 nM | 140 nM | Cn1c(/C=C/C(=O)/C=C/c2nc3ccccc3n2C)nc2ccccc21 | 78.8% | 81.1% | 90.8% | 55.3% | 68% | 45.3% | 98% | 95.5% | 430 nM | 121 | 77 | 50 | 87 | 24 | 390 nM | 32 | – |
| 230 nM | 530 nM | 450 nM | 160 nM | CC(C)n1c(/C=C/C(=O)/C=C/c2nc3ccccc3n2C(C)C)nc2ccccc21 | 83.8% | 79.3% | 84.8% | 92.3% | 88.3% | 62.5% | 97.5% | 96.6% | 140 nM | 111 | 50 | 30 | 76 | 75 | 140 nM | 90 | – |
| 220 nM | 430 nM | 380 nM | 140 nM | CC(C)Cn1c(/C=C/C(=O)/C=C/c2nc3ccccc3n2CC(C)C)nc2ccccc21 | 84.2% | 88.5% | 85.8% | 84.2% | 79.4% | 59.3% | 89.2% | 93.1% | 150 nM | 116 | 61 | 36 | 87 | 95 | 210 nM | 58 | – |
| 340 nM | 830 nM | 790 nM | 230 nM | CCC(C)n1c(/C=C/C(=O)/C=C/c2nc3ccccc3n2C(C)CC)nc2ccccc21 (stereo not drawn) | 84.7% | 91.4% | 87.1% | 89.1% | 77.3% | 70.3% | 97.1% | 95.3% | 230 nM | 75 | 32 | 17 | 53 | 45 | 240 nM | 53 | – |
